This is an account of results in ChEMBL document CHEMBL5244272 (Eur J Med Chem, 2021).

Data set [1] has as its system Plasmodium falciparum. In words: Antimalarial activity against Plasmodium falciparum RKL2. The data set is classed as functional, organism-based.
Data set [2] deals with Plasmodium falciparum. In words: Antimalarial activity against Plasmodium falciparum 3D7. The data set is classed as functional, organism-based.
Data set [3] deals with Plasmodium berghei. In words: Antimalarial activity against Plasmodium berghei ANKA infected in mouse at 30 mg/kg. The data set is classed as functional.
Data set [4] deals with Plasmodium falciparum. Nature of the data set: Antimalarial activity against Plasmodium falciparum W2. The data set is classed as functional, organism-based.
The test system of data set [5] is Plasmodium berghei. Nature of the data set: Antimalarial activity against Plasmodium berghei infected in Swiss mouse at 2 mg/kg/day, po. The data set is classed as functional.
For data set [6], the system named is Plasmodium falciparum. Nature of the data set: Antimalarial activity against Plasmodium falciparum INDO. Type of data set: functional, organism-based.
Data set [7] concerns Plasmodium falciparum. Nature of the data set: Potency index, ratio of chloroquine IC50 to test compound IC50 for Plasmodium falciparum INDO. Type of data set: functional.
Data set [8] can be described thus: Cytotoxicity against HEK293 cells. The data set is classed as toxicity, cell-based. The settings on record: human.
Data set [9] in a line: Selectivity index, ratio of IC50 for HEK293 cells to IC50 for Plasmodium falciparum INDO. Type of data set: toxicity. The settings on record: human, read-out: Ratio IC50.
Data set [10] relates to Plasmodium falciparum. Nature of the data set: Antimalarial activity against Plasmodium falciparum D6. Type of data set: functional, organism-based.
The test system of data set [11] is Plasmodium falciparum. Nature of the data set: Antimalarial activity against chloroquine-sensitive Plasmodium falciparum HB3. The data set is classed as functional, organism-based.
The test system of data set [12] is Plasmodium falciparum. In words: Antimalarial activity against Plasmodium falciparum K1. The data set is classed as functional, organism-based. The settings on record: read-out: EC50.
The subject of data set [13] is Plasmodium falciparum. In words: Antimalarial activity against chloroquine-sensitive Plasmodium falciparum NF54. The data set is classed as functional, organism-based.
The test system of data set [14] is Plasmodium berghei. Nature of the data set: Antimalarial activity against Plasmodium berghei infected in sc dosed mouse. The data set is classed as functional. The following applies: Plasmodium berghei.
For data set [15], the system named is Plasmodium falciparum. Nature of the data set: Antimalarial activity against Plasmodium falciparum Dd2. The data set is classed as functional, organism-based.
Data set [16] relates to Plasmodium falciparum. In words: Antimalarial activity against chloroquine sensitive Plasmodium falciparum FCR-3. The data set is classed as functional, organism-based.
Data set [17] deals with Plasmodium berghei. Nature of the data set: Antimalarial activity against Plasmodium berghei N strain infected in mouse at 30 mg/kg, ip administered once daily for 4 days. Type of data set: functional. The settings on record: time 4 day.
In data set [18] the test system is Plasmodium falciparum. Nature of the data set: Antimalarial activity against Plasmodium falciparum HB3. The data set is classed as functional, organism-based.
Data set [19] relates to Plasmodium falciparum. Nature of the data set: Antimalarial activity against Plasmodium falciparum SGE2. The data set is classed as functional, organism-based.
Data set [20] concerns Plasmodium falciparum. In words: Antimalarial activity against chloroquine resistant Plasmodium falciparum. Type of data set: functional, organism-based.
Data set [21] in a line: Half life in human. The data set is classed as ADME.

In brackets after ≈: the same amount, converted by molar mass.

Take `CC1(C)OOC(c2ccccc2)(c2ccccc2)OO1`: in the data set on Plasmodium falciparum [1], the IC50 amounted to 3.91 µg/mL (≈ 14.3 µM).
In the data set on Plasmodium falciparum [2], `FC1CCN(CCOc2ccc(C3CCC4(CC3)OOC3(OO4)C4CC5CC(C4)CC3C5)cc2)CC1` (stereo unspecified) had an IC50 of 5.1 nM. In the data set on Plasmodium berghei [3], this compound displayed an Activity of 99.65%.
Regarding `CC(C)(N)CNC(=O)O[C@@H]1CCC[C@]2(C1)OOC1(O2)C2CC3CC(C2)CC1C3` (stereo partly specified), the IC50 with Plasmodium falciparum [4] worked out at 1.8 nM. In the data set with Plasmodium berghei [5], this compound displayed an Activity of 100%.
The CC50 is the concentration that lowers cell viability or growth by half. For the compound `C=C(c1ccc2c(c1)CCCC2)C1COC2(CCCCC2)OO1` (stereo unspecified), in the data set on Plasmodium falciparum [6], the IC50 came to 51 nM. The “Ratio IC50” value in the data set on Plasmodium falciparum [7] came out at 11. This compound registered a 50% cytotoxic concentration (CC50) in data set [8] of 30100 nM. Also, the selectivity ratio in data set [9] came out at 589.
As a reminder, the EC50 is the concentration that produces a half-maximal response. What is called ED50 is the midpoint of the dose-response relation. Low values mean greater potency, high ones weaker potency. One may read the half-life as how long it takes for the measured level to halve. A high value points to slow loss. With `C[C@@H]1CC[C@H]2[C@@H](C)C(=O)O[C@@H]3O[C@@]4(C)CC[C@@H]1[C@]32OO4` [ARTEMISININ], the IC50 with Plasmodium falciparum [10] came to 55 nM; in the data set on Plasmodium falciparum [11], 3.04 nM; with Plasmodium falciparum [13] it was 18.4 nM; with Plasmodium falciparum [15] it was 13 nM; with Plasmodium falciparum [16] it was 1.4 nM; in the data set on Plasmodium falciparum [18] it was 7 nM. Also, the IC50 in the data set on Plasmodium falciparum [19] was found to be 9 nM; with Plasmodium falciparum [20], 0.001 mg/cm3. Further, in the data set on Plasmodium falciparum [12], the EC50 is 3.6 nM. This compound gave a 50% effective dose (ED50) in the data set with Plasmodium berghei [14] of 3 mg/kg. The compound also registered an Activity with Plasmodium berghei [17] of 74.5%. In [21], this compound showed a half-life of 2 h.
